Test results as given in patent US6420563B1, “Small molecule modulators of G protein-coupled receptor six” (Arena Pharmaceuticals, Inc., priority 1998, dated 2002).

Legend:
Format in all cases: in vivo, rat
[1] = Food/water intake and body weight in 24-hour food-deprived rats, IP administration; conditions: for body weight gain: vehicle 20 g
Procedure: An in vivo assessment of GPR6 inverse agonist was accomplished by determining the effects of ARE112 on food intake after food deprivation in rats. Food deprivation was used to induce higher than normal eating behavior (e.g., controlvehicle-treated animals were hyperphagic).
The animals (male Sprague-Dawley rats were used for the following experiments) were food deprived for 24 hr, and then injected intraperitoneally (IP) with 0, 6.75, 13.5, 27 and 54 mg/kg of compound ARE112. After 30 min, rats were introduced to standard rat chow pellets and observed thereafter for a period of 6.5 hours post-injection.

[2] = Food/water intake and body weight in 24-hour food deprived rats, oral gavage (PO)
Summary of the method: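 Rats food-deprived 24 h, then dosed by oral gavage (6.75–54 mg/kg, or 100–200 μmol/kg for analogs). Food intake tracked over hours post-dose (2.5 h up to 8 h) along with body weight gain, compared with vehicle-treated rats.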

[3] = Long-term (60 days) body weight, daily repeated IP administration, non-food deprived rats; conditions: 13.5 mg/kg IP once a day for 22 days, assessed for 60 days
Procedure: Long-term effects (60 days) of ARE112 were also examined. Animals (treatment, n=4; control, n=5) were treated once a day intraperitoneally with ARE112 for 22 days and assessed for a period of 60 days. On days 1 to 3, animals treated with dose of 13.5 mg/kg initially lost body weight and between day 4 and day 31, animals gradually gained weight, although still weighing less than vehicle treated animals. […] See, FIG. 11.

[4] = Locomotor activity cages (motor function); conditions: IP
Procedure: The effect of ARE112 on motor function was also examined. Motor function was assessed by using automated locomotor activity cages. Animals were placed in a standard rodent cage surrounded by photocell, which allowed for automated recording of motor activity. Animals were under no motivational constraints and were free to move around the cage.
Male Sprague-Dawley rats (n=4-9 per dose) were administered ARE112 (IP) prior to placement into in locomotor activity cages.

[5] = 100 μmol/kg PO, second assay, Table D, vehicle 19.25

## O=C(N=C1SSC2=NCCN21)c1cccs1 [ARE112, N-(5,6-dihydro-3H-imidazo[2,1-c]-1,2,4-dithiazol-3-ylidene)-thiophen-2-carboxamide]
[1]; 13.5 mg/kg IP
  body weight gain: 11 g
[1]; 27 mg/kg IP
  body weight gain: no weight gain
[1]; 54 mg/kg IP
  decrease in water intake: 5 fold
  body weight gain: no weight gain
[1]; 54 mg/kg IP, 1.5 hours after injection, vehicle about 6 grams
  food consumed (cumulative food intake): 3 g
[1]; 54 mg/kg IP, 6.5 hours post-injection, vehicle up to 14 g
  food consumed (cumulative food intake): 4 g
[2]; 100 μmol/kg PO, second assay, Table D, vehicle 14.0
  Cumulative Food Intake (g) (8 hr post administration): 8.1 g
[2]; [5]
  Body Weight Gain (g) (6 hr post administration): 6.25 g
  Cumulative Water Intake (g) (6 hr post administration): 10.5 g
[2]; 100 μmol/kg oral, vehicle about 19.5 grams
  body weight gain (FIG. 10C): 6 grams
[2]; 27 mg/kg oral gavage, 2.5 hours, vehicle about 6 grams
  food consumed: about 6 grams
[2]; 27 mg/kg oral gavage, 8 hours post-administration, vehicle about 14 grams
  food consumed: about 8 grams
[2]; 54 mg/kg oral gavage, 2.5 hours, vehicle about 6 grams
  food consumed: ~4 grams
[2]; 54 mg/kg oral gavage, 8 hours post-administration, vehicle about 14 grams
  food consumed: about 6 grams
[3]
  body weight, long-term: long-term decrease in body weight
[4]; 1.5 hour immediately after injection
  locomotor activity: does not affect locomotor activity
[4]; 16 hours post-injection
  locomotor activity: decreases locomotor activity
